In patent US6656971B2, “Trisubstituted carbocyclic cyclophilin binding compounds and their use” (Guilford Pharmaceuticals Inc., priority 2001, dated 2003):

Legend:
[1] = target: human recombinant CyPA (Homo sapiens, UniProt P62937); assay: Rotamase (PPIase) inhibition, chymotrypsin-coupled cuvette assay, human recombinant CyPA; assay type: biochemical; details: Table A, value without asterisk: human recombinant CyPA
Text: A number of substrates for rotamase are known in the art or can be derived from those known. Typically, the substrate contacts a sample containing a protein with rotamase activity and the conversion of the substrate is detected after a period of time. The method for detecting conversion of the substrate will vary with the particular substrate chosen. One method has been termed the Ki test (See Harding, et al., Nature, 341:758-760 (1989); and Holt et al., J. Am. Chem. Soc., 115:9923-9938). The cis-trans isomerization of an alanine-proline bond in a model substrate, N-succinyl-Ala-Ala-Pro-Phe-p-nitroanilide (SEQ ID NO: 1), is monitored spectrophotometrically in a chymotrypsin-coupled assay. The action of chymotrypsin releases p-nitroaniline from only the trans form of the substrate. The amount of p-nitroaniline can be monitored in a spectrophotometer, for example. Other methods of detecting the presence of p-nitroaniline can also be used. The inhibition of this reaction caused by different concentrations of inhibitor is determined and the data are analyzed as a change in first-order rate constant as a function of inhibitor concentration, which yields the Ki value.
The following were added to a plastic cuvette: 950 μl of ice cold assay buffer (25 mM HEPES, pH 7.8, 100 mM NaCl), 10 μL of CyP A (2.5 μM in 10 mM Tris-Cl pH 7.5, 100 mM NaCl, 1 mM dithiothreitol), 25 μL of chymotrypsin (50 mg/ml in 1 mM HCl), and 10 μL of test compound, at various concentrations, in dimethyl sulfoxide. The reaction was initiated by the addition of 5 μL of substrate (succinyl-Ala-Phe-Pro-Phe-para-nitroanilide (SEQ ID NO: 1), 5 mg/mL in 470 mM LiCl in trifluoroethanol). The absorbance at 390 nm versus time was monitored for 90 seconds using a spectrophotometer and the rate constants were determined from the absorbance versus time data files.
The IC50 values which were obtained for representative compounds are given in the following Table A, and refer to the concentration that inhibits 50% of the rotamase activity in a sample.
(§1) The Cyclophilin utilized was a human recombinant CyPA, [Yoo et al., J. Mol. Biol., 269 (1997) 780-95].

[2] = target: T1, recombinant rat CyPA-GST fusion protein (Rattus norvegicus, UniProt P10111); assay: Semiautomated microtiter plate assay of rotamase activity inhibition, rat CyPA-GST fusion protein; assay type: biochemical; details: Table B, value with asterisk: recombinant rat CyPA-GST fusion protein
T1 construct: made in house; host or cells: E. coli BL21
Experimental: as §1
The resulting fragment (573 base pairs) was cloned into pCRII and amplified. The CyP sequence was cut out with Sma1 and EcoR1 and cloned into the Sma1/EcoR1 sites in pGEX2TK (Pharmacia). This plasmid was transformed into BL21 E. coli cells for expression of the GST-CyPA fusion protein.
Rotamase inhibition was determined using a semiautomated microtiter plate assay modification of the above described assay [see Küllertz et al., Clin. Chem. 44, 502-508 (1998)]. All dilutions of CyPA, peptide substrate, and chymotrypsin were made in 35 mM ice-cold HEPES buffer. Fifty μL of CyPA solution is added to 50 μL of the peptide substrate solution (Phe-Pro-Phe p-nitroanilide, 0.16 mg/ml) in a glass microtiter well plate (the concentration of human recombinant CyP being adjusted so that the reaction rate is increased by a factor of 3 as compared to an uncatalyzed control reaction wherein the peptide substrate is degraded by chymotrypsin alone, in the absence of CyPA and test compound). Using a Beckman Multimek™ 96 automated 96-channel pipettor, 5 μL of test compound solution, or a DMSO blank, were added to each well for a 30 minute preincubation at 4° C. One hundred μL of chymotrypsin solution (1 mg/mL) were added to each well and the absorbance at 390 nm versus time was monitored for 9-10 minutes using a BioRad Ultramark plate reader maintained at 4° C. and the rate constants were determined from the absorbance versus time data files.
IC50 values which were obtained for representative compounds are presented in the following Table B. The cyclophilin utilized was a human recombinant CyPA. […] While CyP A was used in these examples, other CyP proteins can be substituted.

[3] = target: T1, recombinant rat CyPA-GST fusion protein; assay: Rotamase (PPIase) inhibition, chymotrypsin-coupled cuvette assay, rat CyPA-GST fusion protein; assay type: biochemical; details: Table A, value with asterisk: recombinant rat CyPA-GST fusion protein
[4] = tested on: SMI-32 immunoreactive neurons of lumbar spinal cord slices; assay: Neuroprotection assay in spinal cord slice preparations (THA-induced cell death); assay type: cell-based, Sprague-Dawley rat; details: THA 200 μM + compound 10 μM
Experimental: All cultures were derived from postnatal day 8 (P8) Sprague-Dawley rat lumbar spinal cord slices of 325 micrometer thickness, prepared using a commercially available McIlwain tissue chopper. Each experiment consisted of two 6-well plates with 5 slices from 4 different animals per well. Media changes were performed every 3 to 4 days. Cultures were treated with THA [L(−)-threo-3-hydroxyaspartic acid; Tocris Cookson Inc., Ballwin, Mo.] at 200 μM+compound (10 μM) after one week in culture. The control was an untreated sample with 0.1% DMSO as vehicle. The THA control was a THA treated sample with 0.1% DSMO as vehicle. Two wells were used per condition. One media change with new THA and compounds was performed. […]
Slices were permeabilized with 100% cold methanol for 10 minutes, subsequently washed 3×in 0.1M phosphate buffer and transferred to staining wells. […] Quantification of surviving neurons was performed on a Zeiss Axiovert microscope. Neuronal survival was determined by observing an intact neuronal cell body with processes located ventrally of the central canal in each hemisphere. […] Each hemisphere was counted individually. The statistics were performed with StatView™ software on a minimum of three different experiments per condition and significance was determined as compared to THA control. […]

T1 sequence (P10111 2-164): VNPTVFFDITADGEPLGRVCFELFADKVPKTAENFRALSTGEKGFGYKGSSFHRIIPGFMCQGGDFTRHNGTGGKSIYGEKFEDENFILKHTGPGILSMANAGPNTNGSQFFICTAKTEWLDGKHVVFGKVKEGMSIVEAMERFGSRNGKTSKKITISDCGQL
Chain of human recombinant CyPA (P62937 whole entry): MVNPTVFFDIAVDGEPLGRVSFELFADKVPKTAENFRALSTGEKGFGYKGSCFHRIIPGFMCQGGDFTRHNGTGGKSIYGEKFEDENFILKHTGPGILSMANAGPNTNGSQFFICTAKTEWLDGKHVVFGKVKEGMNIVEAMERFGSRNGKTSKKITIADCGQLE

| IC50 [1] [µM] | melting point [°C] | IC50 [2] [µM] | IC50 [3] [µM] | Structure (SMILES) | protection from THA-induced cell death [4] | SMI-32 immunoreactive neurons per ventral hemisphere ([4]; untreated control 26.4±4.2, THA control 18.97±2.04 (mean±standard error)) [cells/ventral hemisphere] |
| --- | --- | --- | --- | --- | --- | --- |
| 11.7 | 125 to 127 | 9.72 | 12 | O=C(Nc1cc(OCc2cccc3ccccc23)ccc1Br)c1cccc(C(F)(F)F)c1 [Compound 34, N-[2-bromo-5-(naphthylmethoxy)phenyl][3-(trifluoromethyl)phenyl]formamide] |  |  |
|  |  | 0.287 | 0.377 | O=C(Nc1ccc(Cl)c(Cl)c1)c1cc(OCc2ccccc2)cc(C(=O)Nc2ccc(Cl)c(Cl)c2)c1 [Compound 43] | complete protection | 28.14±2.4 |
